How the values were obtained:
Experiment in all cases: KINOMEscan competition binding
Conditions in all cases: compound 10.0 µM
CLK1 (human) = CLK1 (human) (UniProt P49759)
[1] = molecular target: JAK3 JH1 catalytic (human) (UniProt P52333)
CDK9 (human) = CDK9 (human) (UniProt P50750)
RPS6KA1 KD1 (human) = RPS6KA1 KD1 (human) (UniProt Q15418)
STK38L (human) = STK38L (human) (UniProt Q9Y2H1)
CAMK2D (human) = CAMK2D (human) (UniProt Q13557)
MARK4 (human) = MARK4 (human) (UniProt Q96L34)
[2] = molecular target: JAK1 JH2 pseudokinase (human) (UniProt P23458)
MST1R (human) = MST1R (human) (UniProt Q04912)
MAPK3 (human) = MAPK3 (human) (UniProt P27361)
CDK16 (human) = CDK16 (human) (UniProt Q00536)
ZAP70 (human) = ZAP70 (human) (UniProt P43403)
NEK6 (human) = NEK6 (human) (UniProt Q9HC98)
MARK1 (human) = MARK1 (human) (UniProt Q9P0L2)
CAMKK1 (human) = CAMKK1 (human) (UniProt Q8N5S9)
MARK2 (human) = MARK2 (human) (UniProt Q7KZI7)
CLK3 (human) = CLK3 (human) (UniProt P49761)
GSK3A (human) = GSK3A (human) (UniProt P49840)
LATS2 (human) = LATS2 (human) (UniProt Q9NRM7)
MYO3A (human) = MYO3A (human) (UniProt Q8NEV4)
PRKAA1 (human) = PRKAA1 (human) (UniProt Q13131)
IKBKE (human) = IKBKE (human) (UniProt Q14164)
SRPK2 (human) = SRPK2 (human) (UniProt P78362)
STK25 (human) = STK25 (human) (UniProt O00506)
STK16 (human) = STK16 (human) (UniProt O75716)
SLK (human) = SLK (human) (UniProt Q9H2G2)
NEK9 (human) = NEK9 (human) (UniProt Q8TD19)
INSRR (human) = INSRR (human) (UniProt P14616)
PRKX (human) = PRKX (human) (UniProt P51817)
EPHA3 (human) = EPHA3 (human) (UniProt P29320)
SIK2 (human) = SIK2 (human) (UniProt Q9H0K1)
AXL (human) = AXL (human) (UniProt P30530)
CDC42BPA (human) = CDC42BPA (human) (UniProt Q5VT25)
TGFBR2 (human) = TGFBR2 (human) (UniProt P37173)
CSNK1A1L (human) = CSNK1A1L (human) (UniProt Q8N752)
MAP4K2 (human) = MAP4K2 (human) (UniProt Q12851)
PRKACB (human) = PRKACB (human) (UniProt P22694)
ROS1 (human) = ROS1 (human) (UniProt P08922)
ALK (human) = ALK (human) (UniProt Q9UM73)
SYK (human) = SYK (human) (UniProt P43405)

Chain of LATS2 (human) (Q9NRM7 whole entry, looked up): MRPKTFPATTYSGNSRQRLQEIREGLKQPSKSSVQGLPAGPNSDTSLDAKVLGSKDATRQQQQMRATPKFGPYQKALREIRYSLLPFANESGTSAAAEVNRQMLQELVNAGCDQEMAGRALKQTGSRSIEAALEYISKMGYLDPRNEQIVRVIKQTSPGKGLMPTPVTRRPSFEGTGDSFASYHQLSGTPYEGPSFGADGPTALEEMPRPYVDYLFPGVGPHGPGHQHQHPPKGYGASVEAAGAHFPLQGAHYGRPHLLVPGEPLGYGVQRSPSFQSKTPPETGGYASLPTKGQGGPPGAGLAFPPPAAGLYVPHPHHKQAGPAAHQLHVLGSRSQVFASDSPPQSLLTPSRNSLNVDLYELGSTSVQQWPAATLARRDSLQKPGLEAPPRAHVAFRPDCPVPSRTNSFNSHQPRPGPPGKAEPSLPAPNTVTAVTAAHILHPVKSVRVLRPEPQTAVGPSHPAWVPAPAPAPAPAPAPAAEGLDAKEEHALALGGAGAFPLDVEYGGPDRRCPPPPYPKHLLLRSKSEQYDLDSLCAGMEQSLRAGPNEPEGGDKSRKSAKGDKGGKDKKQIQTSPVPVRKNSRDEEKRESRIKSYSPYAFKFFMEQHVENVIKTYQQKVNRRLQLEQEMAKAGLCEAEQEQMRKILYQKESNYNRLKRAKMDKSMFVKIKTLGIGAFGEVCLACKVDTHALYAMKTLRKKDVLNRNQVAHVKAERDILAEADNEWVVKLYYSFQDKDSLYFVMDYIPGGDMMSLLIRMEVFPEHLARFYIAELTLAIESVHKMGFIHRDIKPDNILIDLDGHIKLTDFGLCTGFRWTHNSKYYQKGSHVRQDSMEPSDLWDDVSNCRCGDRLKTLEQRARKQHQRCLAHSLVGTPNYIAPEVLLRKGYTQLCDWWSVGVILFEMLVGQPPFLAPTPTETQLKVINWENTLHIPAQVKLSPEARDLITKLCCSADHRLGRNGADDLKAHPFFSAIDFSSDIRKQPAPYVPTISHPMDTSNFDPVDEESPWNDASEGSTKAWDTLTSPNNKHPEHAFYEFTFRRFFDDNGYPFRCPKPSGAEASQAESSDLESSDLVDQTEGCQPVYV
Chain of CAMKK1 (human) (Q8N5S9 whole entry, looked up): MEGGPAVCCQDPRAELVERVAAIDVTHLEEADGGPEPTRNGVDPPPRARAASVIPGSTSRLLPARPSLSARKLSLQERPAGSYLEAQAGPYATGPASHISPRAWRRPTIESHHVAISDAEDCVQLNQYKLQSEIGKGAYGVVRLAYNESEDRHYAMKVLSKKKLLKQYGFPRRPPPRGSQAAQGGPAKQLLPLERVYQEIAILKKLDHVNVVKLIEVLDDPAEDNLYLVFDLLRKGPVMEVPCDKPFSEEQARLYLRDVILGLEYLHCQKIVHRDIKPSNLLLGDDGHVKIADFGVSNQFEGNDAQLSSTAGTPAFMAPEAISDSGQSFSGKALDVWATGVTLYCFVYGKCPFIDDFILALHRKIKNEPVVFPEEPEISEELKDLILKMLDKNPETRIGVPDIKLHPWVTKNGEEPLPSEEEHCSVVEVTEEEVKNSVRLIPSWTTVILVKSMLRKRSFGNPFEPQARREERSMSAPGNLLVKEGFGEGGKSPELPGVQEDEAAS
Chain of NEK9 (human) (Q8TD19 whole entry, looked up): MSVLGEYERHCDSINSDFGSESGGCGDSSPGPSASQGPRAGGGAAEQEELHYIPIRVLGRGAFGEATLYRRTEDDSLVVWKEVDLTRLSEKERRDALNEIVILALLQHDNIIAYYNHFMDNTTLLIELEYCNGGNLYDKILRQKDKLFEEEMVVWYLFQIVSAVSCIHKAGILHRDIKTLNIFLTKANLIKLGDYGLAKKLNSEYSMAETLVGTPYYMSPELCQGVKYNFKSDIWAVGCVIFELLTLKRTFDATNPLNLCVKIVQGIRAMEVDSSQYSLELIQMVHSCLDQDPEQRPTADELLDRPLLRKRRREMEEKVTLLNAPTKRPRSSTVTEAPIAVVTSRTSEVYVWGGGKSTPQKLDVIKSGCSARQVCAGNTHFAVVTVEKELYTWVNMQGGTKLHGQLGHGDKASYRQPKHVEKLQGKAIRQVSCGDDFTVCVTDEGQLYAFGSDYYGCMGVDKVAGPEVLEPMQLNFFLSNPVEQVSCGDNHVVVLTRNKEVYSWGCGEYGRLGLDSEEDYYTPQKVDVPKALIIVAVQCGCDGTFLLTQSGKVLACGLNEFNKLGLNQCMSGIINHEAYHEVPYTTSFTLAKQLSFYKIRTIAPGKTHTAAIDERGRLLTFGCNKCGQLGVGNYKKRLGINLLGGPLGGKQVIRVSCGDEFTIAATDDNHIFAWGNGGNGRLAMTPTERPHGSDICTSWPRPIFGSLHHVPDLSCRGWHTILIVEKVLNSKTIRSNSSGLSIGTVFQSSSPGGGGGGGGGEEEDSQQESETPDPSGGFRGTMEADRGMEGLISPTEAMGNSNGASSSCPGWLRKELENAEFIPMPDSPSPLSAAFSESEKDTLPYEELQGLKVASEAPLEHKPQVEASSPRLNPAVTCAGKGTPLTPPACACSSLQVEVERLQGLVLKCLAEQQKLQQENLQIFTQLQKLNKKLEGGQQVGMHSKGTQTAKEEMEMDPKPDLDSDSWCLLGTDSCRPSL
Chain of RPS6KA1 KD1 (human) (Q15418 whole entry, looked up): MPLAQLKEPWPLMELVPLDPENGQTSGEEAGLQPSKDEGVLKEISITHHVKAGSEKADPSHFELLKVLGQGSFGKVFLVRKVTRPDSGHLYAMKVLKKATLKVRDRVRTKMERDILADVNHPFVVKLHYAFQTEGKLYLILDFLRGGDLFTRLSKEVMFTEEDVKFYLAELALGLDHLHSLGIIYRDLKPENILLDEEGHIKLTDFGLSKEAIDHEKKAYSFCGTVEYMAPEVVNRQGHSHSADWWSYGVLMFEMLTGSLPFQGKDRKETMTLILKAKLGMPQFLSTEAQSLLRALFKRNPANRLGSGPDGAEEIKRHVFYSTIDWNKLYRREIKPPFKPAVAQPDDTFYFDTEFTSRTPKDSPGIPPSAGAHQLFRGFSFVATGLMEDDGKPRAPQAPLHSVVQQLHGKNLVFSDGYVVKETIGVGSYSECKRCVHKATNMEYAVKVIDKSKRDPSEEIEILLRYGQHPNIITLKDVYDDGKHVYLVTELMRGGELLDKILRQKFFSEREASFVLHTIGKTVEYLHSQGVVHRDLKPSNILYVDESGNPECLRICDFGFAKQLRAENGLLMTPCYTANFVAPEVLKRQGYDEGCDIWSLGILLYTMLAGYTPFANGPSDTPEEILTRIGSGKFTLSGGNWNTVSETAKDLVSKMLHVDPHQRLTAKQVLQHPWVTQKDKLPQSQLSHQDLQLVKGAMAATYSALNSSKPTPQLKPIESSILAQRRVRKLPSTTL
Chain of GSK3A (human) (P49840 whole entry, looked up): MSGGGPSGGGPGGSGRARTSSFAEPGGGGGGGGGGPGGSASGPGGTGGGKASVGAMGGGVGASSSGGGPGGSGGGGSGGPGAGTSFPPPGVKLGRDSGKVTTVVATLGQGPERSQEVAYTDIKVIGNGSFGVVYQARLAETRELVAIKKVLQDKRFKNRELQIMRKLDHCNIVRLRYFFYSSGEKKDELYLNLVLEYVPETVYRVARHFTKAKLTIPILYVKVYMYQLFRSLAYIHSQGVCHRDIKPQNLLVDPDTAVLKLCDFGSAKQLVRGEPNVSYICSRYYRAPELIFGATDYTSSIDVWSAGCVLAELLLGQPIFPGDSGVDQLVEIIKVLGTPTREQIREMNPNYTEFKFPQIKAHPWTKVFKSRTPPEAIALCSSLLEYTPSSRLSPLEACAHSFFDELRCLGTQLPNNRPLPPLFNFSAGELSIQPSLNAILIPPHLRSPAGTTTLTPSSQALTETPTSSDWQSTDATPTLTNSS
Chain of EPHA3 (human) (P29320 whole entry, looked up): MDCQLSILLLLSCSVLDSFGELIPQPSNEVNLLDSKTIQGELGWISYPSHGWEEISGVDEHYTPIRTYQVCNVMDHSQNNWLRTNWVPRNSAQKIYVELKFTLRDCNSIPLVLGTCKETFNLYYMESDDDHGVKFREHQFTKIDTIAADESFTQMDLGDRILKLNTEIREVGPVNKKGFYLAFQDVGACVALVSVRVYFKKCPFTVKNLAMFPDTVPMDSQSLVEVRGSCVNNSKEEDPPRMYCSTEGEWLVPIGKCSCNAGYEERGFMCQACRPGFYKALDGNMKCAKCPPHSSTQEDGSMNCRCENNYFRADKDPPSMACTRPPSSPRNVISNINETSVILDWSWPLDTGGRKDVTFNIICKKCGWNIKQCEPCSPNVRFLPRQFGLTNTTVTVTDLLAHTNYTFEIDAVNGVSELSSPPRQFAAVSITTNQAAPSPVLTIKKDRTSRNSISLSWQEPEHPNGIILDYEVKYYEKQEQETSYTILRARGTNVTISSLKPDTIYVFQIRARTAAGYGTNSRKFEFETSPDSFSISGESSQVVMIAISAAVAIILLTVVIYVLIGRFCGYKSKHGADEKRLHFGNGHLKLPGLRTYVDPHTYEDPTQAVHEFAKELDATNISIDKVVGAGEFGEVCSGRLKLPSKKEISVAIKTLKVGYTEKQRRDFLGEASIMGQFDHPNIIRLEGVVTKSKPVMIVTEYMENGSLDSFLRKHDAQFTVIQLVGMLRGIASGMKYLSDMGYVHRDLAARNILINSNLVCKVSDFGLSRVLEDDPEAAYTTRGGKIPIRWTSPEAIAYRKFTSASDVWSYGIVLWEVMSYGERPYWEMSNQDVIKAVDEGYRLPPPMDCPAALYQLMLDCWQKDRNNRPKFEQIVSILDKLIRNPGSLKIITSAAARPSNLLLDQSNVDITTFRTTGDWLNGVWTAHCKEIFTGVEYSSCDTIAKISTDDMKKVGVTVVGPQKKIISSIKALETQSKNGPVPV
Chain of STK16 (human) (O75716 whole entry, looked up): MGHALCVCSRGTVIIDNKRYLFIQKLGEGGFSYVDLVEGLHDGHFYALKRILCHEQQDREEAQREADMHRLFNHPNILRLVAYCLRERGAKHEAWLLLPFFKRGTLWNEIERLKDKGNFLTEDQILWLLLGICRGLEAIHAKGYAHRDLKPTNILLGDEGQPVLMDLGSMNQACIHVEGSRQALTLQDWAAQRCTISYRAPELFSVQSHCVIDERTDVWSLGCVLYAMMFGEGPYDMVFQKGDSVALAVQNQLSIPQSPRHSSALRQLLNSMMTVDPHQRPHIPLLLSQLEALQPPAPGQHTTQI

Row | Structure (SMILES) | kinase still bound, per cent of control (CLK1 (human)) [%] | kinase still bound, per cent of control [1] [%] | kinase still bound, per cent of control (CDK9 (human)) [%] | kinase still bound, per cent of control (RPS6KA1 KD1 (human)) [%] | kinase still bound, per cent of control (STK38L (human)) [%] | kinase still bound, per cent of control (CAMK2D (human)) [%] | kinase still bound, per cent of control (MARK4 (human)) [%] | kinase still bound, per cent of control [2] [%] | kinase still bound, per cent of control (MST1R (human)) [%] | kinase still bound, per cent of control (MAPK3 (human)) [%] | kinase still bound, per cent of control (ZAP70 (human)) [%] | kinase still bound, per cent of control (NEK6 (human)) [%] | kinase still bound, per cent of control (MARK1 (human)) [%] | kinase still bound, per cent of control (CAMKK1 (human)) [%] | kinase still bound, per cent of control (MARK2 (human)) [%] | kinase still bound, per cent of control (CLK3 (human)) [%] | kinase still bound, per cent of control (GSK3A (human)) [%] | kinase still bound, per cent of control (LATS2 (human)) [%] | kinase still bound, per cent of control (MYO3A (human)) [%] | kinase still bound, per cent of control (PRKAA1 (human)) [%] | other results
1 | CC[C@@H]1C(=O)N(C)c2cnc(Nc3ccc(C(=O)NC4CCN(C)CC4)cc3OC)nc2N1C1CCCC1 | 100 | 100 | 100 | 100 | 100 | 100 | 100 | 100 | 100 | 100 | 100 | 100 | 100 | 1.9 | 100 | 29 | 100 | 100 | 100 | 100 | kinase still bound, per cent of control (CDK16 (human)): 100%; kinase still bound, per cent of control (IKBKE (human)): 100%; kinase still bound, per cent of control (SRPK2 (human)): 100%; kinase still bound, per cent of control (STK25 (human)): 100%; kinase still bound, per cent of control (STK16 (human)): 14%; kinase still bound, per cent of control (SLK (human)): 3%; kinase still bound, per cent of control (NEK9 (human)): 100%; kinase still bound, per cent of control (INSRR (human)): 100%; kinase still bound, per cent of control (PRKX (human)): 100%; kinase still bound, per cent of control (EPHA3 (human)): 100%; kinase still bound, per cent of control (SIK2 (human)): 100%; kinase still bound, per cent of control (AXL (human)): 100%; kinase still bound, per cent of control (CDC42BPA (human)): 100%; kinase still bound, per cent of control (TGFBR2 (human)): 100%; kinase still bound, per cent of control (CSNK1A1L (human)): 100%; kinase still bound, per cent of control (MAP4K2 (human)): 100%; kinase still bound, per cent of control (PRKACB (human)): 100%; kinase still bound, per cent of control (ROS1 (human)): 28%
2 | CCOc1cc2ncc(C#N)c(Nc3ccc(OCc4ccccn4)c(Cl)c3)c2cc1NC(=O)/C=C/CN(C)C | 84 | 100 | 94 | 57 | 100 | 100 | 87 | 100 | 100 | 100 | 87 | 88 | 94 | 100 | 86 | 86 | 97 | 100 | 98 | 79 | kinase still bound, per cent of control (ALK (human)): 100%; kinase still bound, per cent of control (SYK (human)): 65%; kinase still bound, per cent of control (IKBKE (human)): 100%; kinase still bound, per cent of control (SRPK2 (human)): 85%; kinase still bound, per cent of control (STK25 (human)): 13%; kinase still bound, per cent of control (STK16 (human)): 96%; kinase still bound, per cent of control (SLK (human)): 1.4%; kinase still bound, per cent of control (NEK9 (human)): 100%; kinase still bound, per cent of control (INSRR (human)): 94%; kinase still bound, per cent of control (PRKX (human)): 100%; kinase still bound, per cent of control (EPHA3 (human)): 85%; kinase still bound, per cent of control (SIK2 (human)): 58%; kinase still bound, per cent of control (AXL (human)): 5.4%; kinase still bound, per cent of control (CDC42BPA (human)): 91%; kinase still bound, per cent of control (TGFBR2 (human)): 100%; kinase still bound, per cent of control (CSNK1A1L (human)): 98%; kinase still bound, per cent of control (MAP4K2 (human)): 5.2%; kinase still bound, per cent of control (PRKACB (human)): 100%; kinase still bound, per cent of control (ROS1 (human)): 96%
3 | Cc1ccc2nc(NCCN)c3ncc(C)n3c2c1 | 72 | 100 | 35 | 79 | 100 | 100 | 100 | 47 | 100 | 97 | 100 | 100 | 100 | 100 | 100 | 47 | 100 | 100 | 100 | 82 | kinase still bound, per cent of control (ALK (human)): 100%; kinase still bound, per cent of control (SYK (human)): 100%; kinase still bound, per cent of control (IKBKE (human)): 100%; kinase still bound, per cent of control (SRPK2 (human)): 89%; kinase still bound, per cent of control (STK25 (human)): 79%; kinase still bound, per cent of control (STK16 (human)): 100%; kinase still bound, per cent of control (SLK (human)): 100%; kinase still bound, per cent of control (NEK9 (human)): 100%; kinase still bound, per cent of control (INSRR (human)): 100%; kinase still bound, per cent of control (PRKX (human)): 86%; kinase still bound, per cent of control (EPHA3 (human)): 100%; kinase still bound, per cent of control (SIK2 (human)): 82%; kinase still bound, per cent of control (AXL (human)): 100%; kinase still bound, per cent of control (CDC42BPA (human)): 85%; kinase still bound, per cent of control (TGFBR2 (human)): 93%; kinase still bound, per cent of control (CSNK1A1L (human)): 100%; kinase still bound, per cent of control (MAP4K2 (human)): 92%; kinase still bound, per cent of control (PRKACB (human)): 100%; kinase still bound, per cent of control (ROS1 (human)): 77%

— the kinase profiling compilation of Christmann-Franck et al. (2016)
